Assay results as given in patent US20050176784A1, “Malononitrile compounds and their use as pesticides” (priority 2002, published 2005).

Tests used:
Type in all cases: in vivo
Blattella germanica = assay: Test Example 4: filter paper with sucrose bait, Blattella germanica imagoes; details: 144 h, 0.7 ml on filter paper, two male imagoes, after 6 days, read-out: rate of dead pests
Procedure: The formulation obtained according to Formulation Example 5 using the present invention compounds (1), (4), (8), (9), (11), (12), (13) and (14) respectively, was diluted with water so that the active ingredient concentration came to 500 ppm to prepare a pesticidal solution for test.
(§1) On the bottom of a polyethylene cup having a diameter of 5.5 cm, a filter paper having the same diameter was laid, and 0.7 ml of the above pesticidal solution for test was added dropwise on the filter paper, followed by putting 30 mg of sucrose on it uniformly as a bait. Two male Blattella germanica imagoes were set free in the polyethylene cup and covered it with a lid. After 6 days, the number of surviving Blattella germanica was examined and the rate of dead pests was calculated.

Musca domestics = assay: Test Example 3: filter paper with sucrose bait, Musca domestica imagoes; details: 0.7 ml on filter paper, ten female imagoes, after 24 hours, read-out: rate of dead pests
Procedure: The formulation obtained according to Formulation Example 5 using the present invention compounds (1), (2), (4), (8), (9), (10), (11), (13), (14) and (15) respectively, was diluted with water so that the active ingredient concentration came to 500 ppm to prepare a pesticidal solution for test.
as §1, with “Ten female Musca domestics” for “Two male Blattella germanica”, “24 hours,” for “6 days,”, “Musca domestics” for “Blattella germanica”

Culex pipiens pallens = assay: Test Example 5: larvae in treated water, Culex pipiens pallens; details: 24 h, active ingredient concentration 3.5 ppm in water, twenty last-instar larvae, after one day, read-out: rate of dead pests
Procedure: The formulation obtained according to Formulation Example 5 using the present invention compounds (3), (4), (8), (9), (10), (11), (12), (13), (14) and (15) respectively, was diluted with water so that the active ingredient concentration came to 500 ppm to prepare a pesticidal solution for test. 0.7 ml of above pesticidal solution for test was added to 100 ml of ion exchanged water (active ingredient concentration: 3.5 ppm). Twenty last-instar larvae of Culex pipiens pallens were set free in the solution. After one day, the number of surviving Culex pipiens pallens was examined and the rate of dead pests was calculated.

Structure (SMILES) | pest or weed control at 500 ppm (Blattella germanica) [%] | pest or weed control at 500 ppm (Musca domestics) [%] | pest or weed control at 3.5 ppm (Culex pipiens pallens) [%]
C=CCC(C#N)(C#N)Cc1ccc(Cl)nc1 [Compound 1, 2-allyl-2-((6-Chloro-3-pyridyl)methyl)malononitrile] | 100 | ≥ 90 | 
C=CCC(C#N)(C#N)C(C#N)c1ccc(Cl)nc1 (stereo not shown) [Compound 2, 1-(6-Chloro-3-pyridyl)-1,2,2-tricyano-4-pentene] |  | ≥ 90 | 
N#CC(C#N)(CCC(F)=C(F)F)Cc1ccc(Cl)nc1 [Compound 3, 2-((6-Chloro-3-pyridyl)methyl)-2-(3,4,4-trifluoro-3-butenyl)malononitrile] |  |  | 100
N#CC(C#N)(CCC(F)(F)F)Cc1ccc(Cl)nc1 [Compound 4, 2-((6-Chloro-3-pyridyl)methyl)-2-(3,3,3-trifluoropropyl)malononitrile] | 100 | ≥ 90 | 100
N#CC(C#N)(CCC(F)(F)F)Cc1cccc(Cl)n1 [Compound 8, 2-((6-chloro-2-pyridyl)methyl)-2-(3,3,3-trifluoropropyl)malononitrile] | 100 | ≥ 90 | 100
N#CC(C#N)(CCC(F)(F)F)Cc1ccc(C(F)(F)F)nc1 [Compound 9, 2-((6-(trifluoromethyl)-3-pyridyl)methyl)-2-(3,3,3-trifluoropropyl)malononitrile] | 100 | ≥ 90 | 100
N#CC(C#N)(CCC(F)(F)F)Cc1ccc(Br)nc1 [Compound 10, 2-((6-bromo-3-pyridyl)methyl)-2-(3,3,3-trifluoropropyl)malononitrile] |  | ≥ 90 | 100
C#Cc1ccc(CC(C#N)(C#N)CCC(F)(F)F)cn1 [Compound 11, 2-((6-ethynyl-3-pyridyl)methyl)-2-(3,3,3-trifluoropropyl)malononitrile] | 100 | ≥ 90 | 100
N#Cc1ccc(CC(C#N)(C#N)CCC(F)(F)F)cn1 [Compound 12, 2-((6-cyano-3-pyridyl)methyl)-2-(3,3,3-trifluoropropyl)malononitrile] | 100 |  | 100
N#CC(C#N)(CCC(F)(F)F)Cc1ccc(F)nc1 [Compound 13, 2-((6-fluoro-3-pyridyl)methyl)-2-(3,3,3-trifluoropropyl)malononitrile] | 100 | ≥ 90 | 100
N#CC(C#N)(CCC(F)(F)F)Cc1cccc(Br)n1 [Compound 14, 2-((6-bromo-2-pyridyl)methyl)-2-(3,3,3-trifluoropropyl)malononitrile] | 100 | ≥ 90 | 100
N#CC(C#N)(CCC(F)(F)F)Cc1cnc(Cl)c(Cl)c1 [Compound 15, 2-((5,6-dichloro-3-pyridyl)methyl)-2-(3,3,3-trifluoropropyl)malononitrile] |  | ≥ 90 | 100
